pIC50: −log10 of the molar value.
Columns and labels:
[1] = molecular target: hHSD1 (Homo sapiens, UniProt P28845); assay: Enzymatic assay, 11b-HSD1 reductase activity (conversion of cortisone into cortisol), recombinant protein; type: biochemical; details: 2 μM cortisone, 180 μM NADPH, pH 7.2, pIC50 scored, read-out: [C1] hHSD1 reductase Score
Experimental: The effects of compounds on 11b-HSD1 dependent conversion of cortisone into cortisol (reductase activity) was studied in a reaction mixture containing 30 mM Tris-HCl buffer pH 7.2, 180 μM NADPH, 1 mM EDTA, 2 μM cortisone, 1 μl drug and/or solvent and 11 μg recombinant protein in a final volume of 100 μl.
All incubations were performed for 45 min at 37 C in a water bath. The reaction was stopped by adding 100 μl acetonitrile containing 20 μg corticosterone as internal standard. After centrifugation, the product formation was analysed in the supernatant by HPLC on a Hypersyl BDS-C18 column using 0.05 mM ammonium acetate/methanol (50/50) as solvent. In all of the aforementioned assays, the drugs to be tested were taken from a stock solution and tested at a final concentration ranging from −10^−5M to 3·10^−9M. From the thus obtained dose response curves, the pIC50 value was calculated and scored as follows; Score 1=pIC50 value<5, Score 2=pIC50 value in the range of 5 to 6, Score 3=pIC50 value>6. (in this table NT stands for Not Tested).

[2] = molecular target: T1, 11b-HSD1 (Mus musculus, UniProt P50172); assay: Cellular assay, 11b-HSD1 activity in differentiated 3T3-L1 cells; type: cell-based; details: 4 hour pre-incubation, pIC50 scored, read-out: [C2] HSD1 cellular 3T3-L1 Score
T1 construct: endogenous in cells; host or cells: 3T3-L1 (ATCC-CL-173), differentiated into adipocytes
Experimental: The effects on 11b-HSD1 activity was measured in differentiated 3T3-L1 cells and rat hepatocytes.
Mouse fibroblast 3T3-L1 cells (ATCC-CL-173) were seeded at a density of 16500 cells/ml in 12 well plates and grown for 7 days in DMEM medium (supplemented with 10% heat inactivated foetal calf serum, 2 mM glutamine and 25 mg gentamycin) at 37° C. in a humidified 5% CO2 atmosphere. Medium was refreshed twice a week. Fibroblasts were differentiated into adipocytes at 37° C. in a 5% CO2 humidified atmosphere in growth medium containing 2 μg/ml insulin, 55 μg/ml IBMX and 39.2 μg/ml dexamethasone.
Primary hepatocytes from male rats were seeded on normal Falcon 12 well plates at a density of 250000 cells/well and incubated for 16 hours at 37° C. in a 5% CO2 humidified atmosphere in DMEM-HAM's F12 medium containing 5% Nu-serum, 100 U/ml penicillin, 100 μg/ml streptomycin, 0.25 μg/ml amphotericin B, 50 μg/ml gentamycin sulfate, 5 μg/ml insulin and 392 ng/ml dexamethasone. Following a 4 hour pre-incubation with test compound, 0.5 μCi ^3H-cortisone or dehydrocorticosterone, was added to the 3T3-L1 cultures. One hour later, the medium was extracted on Extrelut^3-columns with 15 ml diethyl ether and the extract was analysed by HPLC as described above. The effects of JNJ-compounds on rat hepatocyte HSD1 activity was measured after an incubation period of 90 minutes with 0.5 μCi^3H-dehydrocorticosterone. Corticosterone formation was analysed by HPLC.
(§1) As for the enzymatic assays, the compounds to be tested were taken from a stock solution and tested at a final concentration ranging from −10^−5M to 3·10^−9M. From the thus obtained dose response curves, the pIC50 value was calculated and scored as follows; Score 1=pIC50 value<5, Score 2=pIC50 value in the range of 5 to 6, Score 3=pIC50 value>6. (in this table NT stands for Not Tested).

[3] = molecular target: T2, 11b-HSD2 (Homo sapiens, UniProt P80365); assay: Cellular assay, 11b-HSD2 activity in HepG2 cells; type: cell-based; details: 4 hour pre-incubation, pIC50 scored, read-out: [C2] HSD2 cellular HepG2 Score
T2 construct: endogenous in cells; host or cells: HepG2 (ATCC HB-8065)
T2 sequence (P80365 1-405): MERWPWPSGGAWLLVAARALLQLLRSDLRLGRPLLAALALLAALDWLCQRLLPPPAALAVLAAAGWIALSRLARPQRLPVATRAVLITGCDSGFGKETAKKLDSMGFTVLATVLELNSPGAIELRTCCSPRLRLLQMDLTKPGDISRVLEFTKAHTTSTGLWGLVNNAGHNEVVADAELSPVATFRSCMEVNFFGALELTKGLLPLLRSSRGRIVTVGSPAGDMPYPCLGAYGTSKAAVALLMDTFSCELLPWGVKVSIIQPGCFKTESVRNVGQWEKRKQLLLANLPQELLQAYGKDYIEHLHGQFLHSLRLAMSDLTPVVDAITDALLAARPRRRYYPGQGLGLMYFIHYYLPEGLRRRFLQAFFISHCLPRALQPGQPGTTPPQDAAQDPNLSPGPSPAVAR
Experimental: The effects on 11b-HSD2 activity was studied in HepG2 and LCC-PK1-cells HepG2-cells (ATCC HB-8065) were seeded in 12 well plates at a density of 100,000 cells/ml and grown at 37° C. in a humidified 5% CO2 atmosphere in MEM-Rega-3 medium supplemented with 10% heat inactivated foetal calf serum, 2 mM L-glutamine and sodium bicarbonate). Medium was refreshed twice a week.
Following a 4 hour pre-incubation with test compound, 0.5 μCi ^3H-cortisol or corticosterone, was added to the cultures. One hour later, the medium was extracted on Extrelut^3-columns with 15 ml diethyl ether and the extract was analysed by HPLC as described above.
as §1

T1 sequence (P50172 whole entry): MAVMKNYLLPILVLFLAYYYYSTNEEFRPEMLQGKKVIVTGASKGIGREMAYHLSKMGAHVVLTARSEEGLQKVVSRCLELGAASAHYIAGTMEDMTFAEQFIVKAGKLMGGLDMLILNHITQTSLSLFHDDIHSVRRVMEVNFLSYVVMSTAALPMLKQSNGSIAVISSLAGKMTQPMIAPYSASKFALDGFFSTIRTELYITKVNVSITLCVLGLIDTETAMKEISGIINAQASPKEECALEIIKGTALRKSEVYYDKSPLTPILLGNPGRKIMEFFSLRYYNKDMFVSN
Chain of hHSD1 (P28845 whole entry): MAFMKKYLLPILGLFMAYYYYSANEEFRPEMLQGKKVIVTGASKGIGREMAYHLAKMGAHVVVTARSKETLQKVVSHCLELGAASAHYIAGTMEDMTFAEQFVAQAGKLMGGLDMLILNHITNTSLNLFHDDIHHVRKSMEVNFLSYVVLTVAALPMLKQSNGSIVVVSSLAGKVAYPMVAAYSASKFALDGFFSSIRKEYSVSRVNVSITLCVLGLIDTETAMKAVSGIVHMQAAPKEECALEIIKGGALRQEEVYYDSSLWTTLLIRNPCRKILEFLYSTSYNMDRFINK

pIC50 [1]	pIC50 [2]	pIC50 [3]	melting point	Structure (SMILES)
5.00 to 6.00	5.00 to 6.00			O=C1[C@@H]2c3ccccc3CC[C@@H]2CN1C1C2CC3CC(C2)CC1C3 (some centres unmarked) [Compound 1]
> 6.00	> 6.00	> 6.00		O=C1[C@@H]2CCc3ccccc3[C@H]2CN1[C@H]1[C@@H]2CC3C[C@H]1C[C@](F)(C3)C2 [Compound 32]
< 5.00	> 6.00	< 5.00		O=C1[C@H]2Cc3ccccc3CN2CN1C1C2CC3CC(C2)CC1C3 (some centres unmarked) [Compound 4]
> 6.00	> 6.00	> 6.00		O=C1[C@H]2CCc3ccccc3[C@@H]2CN1C1C2CC3CC(C2)CC1C3 (some centres unmarked) [Compound 3]
> 6.00	> 6.00			O=C1N2CCc3ccc(Br)cc3C2CN1C1C2CC3CC(C2)CC1C3 (centres unmarked) [Compound 7]
> 6.00	> 6.00	5.00 to 6.00		O=C1[C@H]2CCc3ccccc3[C@@H]2CN1CC12CC3CC(CC(C3)C1)C2 [Compound 15]
< 5.00	< 5.00	< 5.00		O=C1[C@@H]2Cc3cccnc3C[C@@H]2CN1[C@@H]1[C@@H]2CC3C[C@H]1C[C@](O)(C3)C2 [Compound 28]
> 6.00	> 6.00	5.00 to 6.00		O=C1[C@@H]2CCc3ccccc3[C@@H]2CN1CC12CC3CC(CC(C3)C1)C2 [Compound 16]
< 5.00	> 6.00			O=C1[C@@H]2CCc3ccccc3[C@H]2CN1Cc1ccccc1 [Compound 19]
5.00 to 6.00	> 6.00			O=C1[C@@H]2CCc3ccccc3[C@@H]2CN1Cc1ccccc1 [Compound 20]
	5.00 to 6.00			O=C1[C@@H]2Cc3ccccc3CN2CN1C1C2CC3CC(C2)CC1C3 (some centres unmarked) [Compound 12]
> 6.00	> 6.00	> 6.00		O=C1[C@@H]2CCc3ccccc3[C@@H]2CN1[C@H]1[C@@H]2CC3C[C@H]1C[C@](O)(C3)C2 [Compound 33]
> 6.00	> 6.00	5.00 to 6.00		O=C1[C@H]2Cc3ccccc3C[C@H]2CN1[C@H]1[C@@H]2CC3C[C@H]1C[C@](O)(C3)C2 [Compound 27]
> 6.00	> 6.00	> 6.00	235 to 237 °C	O=C1N2CCc3ccccc3C2CN1[C@H]1[C@@H]2CC3C[C@H]1C[C@](O)(C3)C2 (some centres unmarked) [Compound 24]
	> 6.00			O=C1N(C2C3CC4CC(C3)CC2C4)C[C@@H]2Cc3ccccc3CN12 (some centres unmarked) [Compound 11]
5.00 to 6.00	> 6.00		210 to 212 °C	O=C1N2CCc3ccccc3C2CN1[C@@H]1[C@@H]2CC3C[C@H]1C[C@](O)(C3)C2 (some centres unmarked) [Compound 25]
< 5.00	5.00 to 6.00	< 5.00		O=C1C2=Cc3cnccc3CC2CN1[C@H]1[C@@H]2CC3C[C@H]1C[C@](O)(C3)C2 (some centres unmarked) [Compound 30]

pIC50 [1]	pIC50 [2]	pIC50 [3]	melting point	Structure (SMILES)
5.00 to 6.00	> 6.00	5.00 to 6.00		O=C1[C@@H]2CCc3ccccc3[C@@H]2CN1C1C2CC3CC(C2)CC1C3 (some centres unmarked) [Compound 8]
> 6.00	> 6.00	5.00 to 6.00		O=C1[C@H]2Cc3ccsc3C[C@@H]2CN1C1C2CC3CC(C2)CC1C3 (some centres unmarked) [Compound 18]
5.00 to 6.00	5.00 to 6.00	< 5.00		O=C1[C@@H]2Cc3ccccc3C[C@@H]2CN1[C@@H]1[C@@H]2CC3C[C@H]1C[C@](O)(C3)C2 [Compound 26]
> 6.00	> 6.00	5.00 to 6.00		O=C1C2Cc3ccccc3CC2CN1C1C2CC3CC(C2)CC1C3 (centres unmarked) [Compound 2]
> 6.00	> 6.00	> 6.00		O=C1[C@@H]2CCc3ccccc3[C@H]2CN1[C@H]1[C@@H]2CC3C[C@H]1C[C@](O)(C3)C2 [Compound 31]
5.00 to 6.00	> 6.00	5.00 to 6.00		O=C1N(C2C3CC4CC(C3)CC2C4)C[C@H]2Cc3ccccc3CN12 (some centres unmarked) [Compound 5]
< 5.00	< 5.00	< 5.00		O=C1[C@H]2Cc3cnccc3C[C@H]2CN1[C@@H]1[C@@H]2CC3C[C@H]1C[C@](O)(C3)C2 [Compound 29]
> 6.00	> 6.00	> 6.00		O=C1N2CCc3c(Br)cccc3C2CN1C1C2CC3CC(C2)CC1C3 (centres unmarked) [Compound 23]
5.00 to 6.00	> 6.00			O=C1C2=Cc3cnccc3CC2CN1C1C2CC3CC(C2)CC1C3 (centres unmarked) [Compound 22]
> 6.00	> 6.00	< 5.00		COc1ccc2c(c1)CC1C(=O)N(C3C4CC5CC(C4)CC3C5)CC1C2 (centres unmarked) [Compound 10]
> 6.00	> 6.00	5.00 to 6.00		O=C1N(CC23CC4CC(CC(C4)C2)C3)CC2c3ccccc3CCN12 (centres unmarked) [Compound 14]
5.00 to 6.00	5.00 to 6.00			O=C1[C@H]2Cc3cnccc3C[C@H]2CN1[C@H]1[C@@H]2CC3C[C@H]1C[C@](O)(C3)C2 [Compound 34]
5.00 to 6.00	> 6.00	5.00 to 6.00		COc1cccc2c1CC1CN(C3C4CC5CC(C4)CC3C5)C(=O)C1C2 (centres unmarked) [Compound 9]
< 5.00	> 6.00			O=C1C2=Cc3cccnc3CC2CN1C1C2CC3CC(C2)CC1C3 (centres unmarked) [Compound 21]
> 6.00	> 6.00	> 6.00		O=C1N2CCc3ccccc3C2CN1C1C2CC3CC(C2)CC1C3 (centres unmarked) [Compound 6]
> 6.00	> 6.00	> 6.00		O=C1[C@H]2CCc3ccccc3[C@@H]2CN1C12CC3CC(CC(C3)C1)C2 [Compound 17]
< 5.00	< 5.00	< 5.00		O=C1N(C2C3CC4CC(C3)CC2C4)CC2CCc3ccccc3N12 (centres unmarked) [Compound 13]

From US9150512B2, “Tricyclic lactam derivatives as 11-beta hydroxysteroid dehydrogenase inhibitors” (Janssen Pharmaceutica NV, priority 2004, dated 2015)
